Reference: the NIST ThermoML archive (doi:10.1016/j.jct.2005.06.011)

Legend:
[1] = xn = mol fraction of the nth substance listed; details: 101 kPa, Liquid; for speed of sound: Linear variable-path acoustic interferometer
[2] = refractive index (Na D-line) (dimensionless); xn = mol fraction of the nth substance listed; details: 101 kPa, Liquid

CC1CCCCC1 [methylcyclohexane] + CC(C)CO
Details | mass density, 298.15 K [kg/m3] | mass density, 303.15 K [kg/m3] | mass density, 308.15 K [kg/m3] | refractive index, 298.15 K | refractive index, 303.15 K | refractive index, 308.15 K | speed of sound, 298.15 K [m/s] | viscosity, 298.15 K [mPa·s] | viscosity, 303.15 K [mPa·s] | viscosity, 308.15 K [mPa·s]
[1], x1 = 0.1003 | 802.66 | 798.47 | 794.29 | – | – | – | 1175 | 2.499 | 2.17 | 1.841
[1], x1 = 0.2006 | 796.44 | 792.18 | 787.91 | – | – | – | 1179 | 2.037 | 1.79 | 1.542
[1], x1 = 0.3008 | 790.71 | 786.35 | 782.02 | – | – | – | 1183 | 1.63 | 1.44 | 1.248
[1], x1 = 0.4037 | 785.47 | 781.09 | 776.69 | – | – | – | 1188 | 1.359 | 1.209 | 1.058
[1], x1 = 0.5066 | 780.72 | 776.29 | 771.86 | – | – | – | 1193 | 1.12 | 1.017 | 0.9138
[1], x1 = 0.6052 | 776.53 | 772.08 | 767.64 | – | – | – | 1198 | 0.9911 | 0.906 | 0.821
[1], x1 = 0.7038 | 772.84 | 768.37 | 763.92 | – | – | – | 1202 | 0.8637 | 0.7964 | 0.729
[1], x1 = 0.8025 | 769.44 | 764.99 | 760.54 | – | – | – | 1207 | 0.7897 | 0.7317 | 0.6738
[1], x1 = 0.9011 | 766.63 | 762.18 | 757.75 | – | – | – | 1212 | 0.7162 | 0.6676 | 0.6189
[1], x1 = 1 | 764.99 | 760.66 | 756.3 | – | – | – | 1217 | 0.6757 | 0.631 | 0.5902
[2], x1 = 0.1003 | – | – | – | 1.397 | 1.3945 | 1.392 | – | – | – | –
[2], x1 = 0.2006 | – | – | – | 1.4 | 1.3975 | 1.395 | – | – | – | –
[2], x1 = 0.3008 | – | – | – | 1.4031 | 1.4005 | 1.3979 | – | – | – | –
[2], x1 = 0.4037 | – | – | – | 1.4059 | 1.4033 | 1.4007 | – | – | – | –
[2], x1 = 0.5066 | – | – | – | 1.4088 | 1.4061 | 1.4034 | – | – | – | –
[2], x1 = 0.6052 | – | – | – | 1.4114 | 1.4088 | 1.4062 | – | – | – | –
[2], x1 = 0.7038 | – | – | – | 1.4141 | 1.4115 | 1.409 | – | – | – | –
[2], x1 = 0.8025 | – | – | – | 1.4167 | 1.414 | 1.4113 | – | – | – | –
[2], x1 = 0.9011 | – | – | – | 1.4194 | 1.4165 | 1.4135 | – | – | – | –
[2], x1 = 1 | – | – | – | 1.4217 | 1.4192 | 1.4163 | – | – | – | –
